Results from patent publication US20240109903A1, “SUBSTITUTED HETEROCYCLES FOR TREATING CANCER” (Northwestern University, priority 2022, published 2024).

Columns and labels:
KM12 = assay: NCI 60 five-dose screen KM12; assay type: cell-based; settings: Homo sapiens, five-dose
LOX IMVI = assay: NCI 60 five-dose screen LOX IMVI; assay type: cell-based; settings: Homo sapiens, five-dose
HCT-15 = assay: NCI 60 five-dose screen HCT-15; assay type: cell-based; settings: Homo sapiens, five-dose
HCC-2998 = assay: NCI 60 five-dose screen HCC-2998; assay type: cell-based; settings: Homo sapiens, five-dose
MOLT-4 = assay: NCI 60 five-dose screen MOLT-4; assay type: cell-based; settings: Homo sapiens, five-dose
MALME-3M = assay: NCI 60 five-dose screen MALME-3M; assay type: cell-based; settings: Homo sapiens, MALME-3M, five-dose
IGROV1 = assay: NCI 60 five-dose screen IGROV1; assay type: cell-based; settings: Homo sapiens, IGROV-1, five-dose
SF-539 = assay: NCI 60 five-dose screen SF-539; assay type: cell-based; settings: Homo sapiens, five-dose
A549/ATCC = assay: NCI 60 five-dose screen A549/ATCC; assay type: cell-based; settings: Homo sapiens, five-dose
SNB-19 = assay: NCI 60 five-dose screen SNB-19; assay type: cell-based; settings: Homo sapiens, five-dose
HOP-92 = assay: NCI 60 five-dose screen HOP-92; assay type: cell-based; settings: Homo sapiens, five-dose
MCF7 = assay: NCI 60 five-dose screen MCF7; assay type: cell-based; settings: Homo sapiens, five-dose
NCI-H322M = assay: NCI 60 five-dose screen NCI-H322M; assay type: cell-based; settings: Homo sapiens, five-dose
K-562 = assay: NCI 60 five-dose screen K-562; assay type: cell-based; settings: Homo sapiens, K562, five-dose
COLO 205 = assay: NCI 60 five-dose screen COLO 205; assay type: cell-based; settings: Homo sapiens, five-dose
RXF 393 = assay: NCI 60 five-dose screen RXF 393; assay type: cell-based; settings: Homo sapiens, five-dose
HT29 = assay: NCI 60 five-dose screen HT29; assay type: cell-based; settings: Homo sapiens, HT-29, five-dose
CAKI-1 = assay: NCI 60 five-dose screen CAKI-1; assay type: cell-based; settings: Homo sapiens, five-dose
SR = assay: NCI 60 five-dose screen SR; assay type: cell-based, human; settings: five-dose
MDA-MB-231/ATCC = assay: NCI 60 five-dose screen MDA-MB-231/ATCC; assay type: cell-based; settings: Homo sapiens, five-dose
OVCAR-8 = assay: NCI 60 five-dose screen OVCAR-8; assay type: cell-based; settings: Homo sapiens, five-dose
SF-295 = assay: NCI 60 five-dose screen SF-295; assay type: cell-based; settings: Homo sapiens, five-dose
SF-268 = assay: NCI 60 five-dose screen SF-268; assay type: cell-based; settings: Homo sapiens, five-dose
HL-60(TB) = assay: NCI 60 five-dose screen HL-60(TB); assay type: cell-based; settings: Homo sapiens, five-dose
TK-10 = assay: NCI 60 five-dose screen TK-10; assay type: cell-based; settings: Homo sapiens, five-dose
SN12C = assay: NCI 60 five-dose screen SN12C; assay type: cell-based; settings: Homo sapiens, five-dose
786-0 = assay: NCI 60 five-dose screen 786-0; assay type: cell-based; settings: Homo sapiens, five-dose
SK-MEL-2 = assay: NCI 60 five-dose screen SK-MEL-2; assay type: cell-based; settings: Homo sapiens, five-dose
[1] = read-out: LC50 (the source's name) (converted)
[2] = read-out: LC50 (the source's name)

FC(F)(F)c1cc2c(Cl)ncnc2n1CCN1CCCCC1 [NUCC-0226679]
GI50 (KM12): 29.5 µM | IC50 (KM12): 41.7 µM | IC (TGI) (KM12): 100 µM | CC50 (KM12; [1]): ≥ 100 µM | GI50 (LOX IMVI): 1700 nM | IC50 (LOX IMVI): 2950 nM | IC (TGI) (LOX IMVI): 3.09 µM | CC50 (LOX IMVI; [1]): 5.75 µM | GI50 (HCT-15): 3.16 µM | IC50 (HCT-15): 4.17 µM | IC (TGI) (HCT-15): 12.9 µM | CC50 (HCT-15; [1]): 55 µM | GI50 (HCC-2998): 4.07 µM | IC50 (HCC-2998): 8.32 µM | IC (TGI) (HCC-2998): 14.5 µM | CC50 (HCC-2998; [1]): 40.7 µM | GI50 (MOLT-4): 10.5 µM | IC50 (MOLT-4): 25.1 µM | IC (TGI) (MOLT-4): 55 µM | CC50 (MOLT-4; [2]): ≥ 100 µM | GI50 (MALME-3M): 19.1 µM | IC50 (MALME-3M): 63.1 µM | IC (TGI) (MALME-3M): 55 µM | CC50 (MALME-3M; [1]): ≥ 100 µM | GI50 (IGROV1): 2950 nM | IC50 (IGROV1): 4.37 µM | IC (TGI) (IGROV1): 10.2 µM | CC50 (IGROV1; [1]): 38 µM | GI50 (SF-539): 17 µM | IC50 (SF-539): 31.6 µM | IC (TGI) (SF-539): 36.3 µM | CC50 (SF-539; [1]): 75.9 µM | GI50 (A549/ATCC): 79.4 µM | IC50 (A549/ATCC): 100 µM | IC (TGI) (A549/ATCC): 100 µM | CC50 (A549/ATCC; [1]): ≥ 100 µM | GI50 (SNB-19): 15.1 µM | IC50 (SNB-19): 28.2 µM | IC (TGI) (SNB-19): 30.9 µM | CC50 (SNB-19; [1]): 64.6 µM | GI50 (HOP-92): 19.5 µM | IC50 (HOP-92): 63.1 µM | IC (TGI) (HOP-92): 53.7 µM | CC50 (HOP-92; [1]): ≥ 100 µM | GI50 (MCF7): 19.5 µM | IC50 (MCF7): 30.2 µM | IC (TGI) (MCF7): 75.9 µM | CC50 (MCF7; [1]): ≥ 100 µM | GI50 (NCI-H322M): 15.5 µM | IC50 (NCI-H322M): 36.3 µM | IC (TGI) (NCI-H322M): 43.7 µM | CC50 (NCI-H322M; [1]): ≥ 100 µM | GI50 (K-562): 2880 nM | IC50 (K-562): 3.63 µM | IC (TGI) (K-562): 100 µM | CC50 (K-562; [2]): ≥ 100 µM | GI50 (COLO 205): 52.5 µM | IC50 (COLO 205): 100 µM | IC (TGI) (COLO 205): 100 µM | CC50 (COLO 205; [1]): ≥ 100 µM | GI50 (RXF 393): 15.5 µM | IC50 (RXF 393): 45.7 µM | IC (TGI) (RXF 393): 40.7 µM | CC50 (RXF 393; [1]): ≥ 100 µM | GI50 (HT29): 20.9 µM | IC50 (HT29): 29.5 µM | IC (TGI) (HT29): 81.3 µM | CC50 (HT29; [1]): ≥ 100 µM | GI50 (CAKI-1): 25.1 µM | IC50 (CAKI-1): 47.9 µM | IC (TGI) (CAKI-1): 100 µM | CC50 (CAKI-1; [1]): ≥ 100 µM | GI50 (SR; Homo sapiens): 3.31 µM | IC50 (SR; Homo sapiens): 6.17 µM | CC50 (SR; Homo sapiens, read-out: LC50 (the source's name)): ≥ 100 µM | TGI (SR): 4.58 −log[M] | GI50 (MDA-MB-231/ATCC): 5.5 µM | IC50 (MDA-MB-231/ATCC): 14.5 µM | IC (TGI) (MDA-MB-231/ATCC): 19.5 µM | CC50 (MDA-MB-231/ATCC; [1]): 50.1 µM | GI50 (OVCAR-8): 12.6 µM | IC50 (OVCAR-8): 20.4 µM | IC (TGI) (OVCAR-8): 33.1 µM | CC50 (OVCAR-8; [1]): 87.1 µM | GI50 (SF-295): 22.4 µM | IC50 (SF-295): 40.7 µM | IC (TGI) (SF-295): 87.1 µM | CC50 (SF-295; [1]): ≥ 100 µM | GI50 (SF-268): 16.2 µM | IC50 (SF-268): 30.9 µM | IC (TGI) (SF-268): 38.9 µM | CC50 (SF-268; [1]): 93.3 µM | GI50 (HL-60(TB)): 2090 nM | IC50 (HL-60(TB)): 4.37 µM | IC (TGI) (HL-60(TB)): 7.41 µM | CC50 (HL-60(TB); [1]): ≥ 100 µM | GI50 (TK-10): 100 µM | IC50 (TK-10): 100 µM | IC (TGI) (TK-10): 100 µM | CC50 (TK-10; [1]): ≥ 100 µM | GI50 (SN12C): 19.5 µM | IC50 (SN12C): 34.7 µM | IC (TGI) (SN12C): 100 µM | CC50 (SN12C; [1]): ≥ 100 µM | GI50 (786-0): 39.8 µM | IC50 (786-0): 66.1 µM | IC (TGI) (786-0): 100 µM | CC50 (786-0; [1]): ≥ 100 µM | GI50 (SK-MEL-2): 16.6 µM | IC50 (SK-MEL-2): 33.9 µM | IC (TGI) (SK-MEL-2): 33.1 µM | CC50 (SK-MEL-2; [1]): 66.1 µM
